Source: ChEMBL document CHEMBL1134158, “Antimycobacterial in vitro activity of cobalt(II) isonicotinoylhydrazone complexes. Part 10” (2001)
In brackets after ≈: the same amount, converted by molar mass.

System: Mycobacterium tuberculosis
Experiment: In vitro anti-mycobacterial activity against Mycobacterium tuberculosis H37Rv
Assay type: functional

SMILES	MIC [µg/mL]
NNC(=O)c1ccncc1 [ISONIAZID]	0.025 (≈ 0.182 µM)
CO[C@H]1/C=C/O[C@@]2(C)Oc3c(C)c(O)c4c(O)c(c(/C=N/N5CCN(C)CC5)c(O)c4c3C2=O)NC(=O)/C(C)=C\C=C\[C@H](C)[C@H](O)[C@@H](C)[C@@H](O)[C@@H](C)[C@H](OC(C)=O)[C@@H]1C [RIFAMPIN]	0.06 (≈ 0.0729 µM)
